Test results: US20240360178A1, “MACROCYCLIC IMMUNOMODULATORS” (Bristol-Myers Squibb Company, priority 2021, published 2024)
Positions of bridges follow the written chain, without caps; N, C: chain ends. Non-standard residues stand in square brackets, D forms with d. Residues, ends and D or L forms follow the SMILES beside them. *: point of attachment. Ala(1H-tetrazol-5-yl) = N[C@@H](Cc1nnn[nH]1)C(=O)O; Phe(4-COOH) = N[C@@H](Cc1ccc(C(=O)O)cc1)C(=O)O; Bip = N[C@@H](Cc1ccc(-c2ccccc2)cc1)C(=O)O; Phe(3-OMe) = COc1cccc(C[C@H](N)C(=O)O)c1; Phe(4-CN) = N#Cc1ccc(C[C@H](N)C(=O)O)cc1; Val(3-OH) = CC(C)(O)[C@H](N)C(=O)O; NMeF = CN[C@@H](Cc1ccccc1)C(=O)O; 3Pal = N[C@@H](Cc1cccnc1)C(=O)O; 4Pal = N[C@@H](Cc1ccncc1)C(=O)O; Cha = N[C@@H](CC1CCCCC1)C(=O)O; Cit = NC(=O)NCCC[C@H](N)C(=O)O; dDab = NCC[C@@H](N)C(=O)O; Carboxymethyl = O=C(O)C*; NMeA = CN[C@@H](C)C(=O)O; Nle = CCCC[C@H](N)C(=O)O; Orn = NCCC[C@H](N)C(=O)O; Dab = NCC[C@H](N)C(=O)O; Sar = CNCC(=O)O

The compounds below were run against T1, human PD-1 (Jurkat-PD-1 cells) / PE-labeled human PD-L1-Ig (Homo sapiens, UniProt Q15116) (assay: Jurkat-PD-1 Cell Binding High-Content Screening Assay (CBA); Jurkat hPD1-PDL1 assay). Conditions: Jurkat cell line over-expressing human PD-1; PE-labeled PD-L1-Ig 20 nM final; compound incubated 2 hours at 37° C.; read-out: Jurkat HPD1-PDL1 IC50.
T1 construct: expressed in transfected cells; host or cells: Jurkat cell line over-expressing human PD-1
T1 sequence (Q15116 25-288): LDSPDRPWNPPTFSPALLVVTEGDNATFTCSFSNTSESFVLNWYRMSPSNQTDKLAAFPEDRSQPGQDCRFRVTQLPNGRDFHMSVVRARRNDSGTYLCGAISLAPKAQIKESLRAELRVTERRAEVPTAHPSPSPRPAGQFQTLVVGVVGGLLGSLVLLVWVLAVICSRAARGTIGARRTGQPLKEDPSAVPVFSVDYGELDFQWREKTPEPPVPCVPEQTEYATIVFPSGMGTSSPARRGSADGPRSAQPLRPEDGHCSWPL
Summary of the method: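 Jurkat cells over-expressing human PD-1, seeded in DMEM with 10% fetal calf serum, were preincubated with compound for 2 hours at 37° C. PE-labeled human PD-L1-Ig was then added at 20 nM final, and cell-bound fluorescence was read by high-content imaging.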

IC50 [nM]	Compound
210	CC(C)C[C@@H]1NC(=O)[C@H](CCCCN)NC(=O)[C@H](Cc2ccccc2)N(C)C(=O)[C@H](C)N(C)C(=O)[C@H](CCCNC(=N)N)NC(=O)[C@H](Cc2ccc(-c3ccccc3)cc2)NC(=O)[C@H](C(C)C)NC(=O)[C@H](Cc2c[nH]c3ccccc23)NC(=O)[C@H](CC(=O)O)NC(=O)[C@H](Cc2ccc(O)cc2)NC(=O)[C@H](CC(N)=O)NC(=O)CSC[C@@H](C(=O)N[C@@H](CO)C(N)=O)NC(=O)[C@H]([C@@H](C)O)NC(=O)[C@H](C(C)C)NC1=O [Example 1354] ({CH2CO}-NYDWV[Bip]R[NMeA][NMeF]KLVTCS-NH2; thioether N-14)
160	CC(C)C[C@@H]1NC(=O)[C@H](CCCNC(=N)N)NC(=O)[C@H](Cc2ccccc2)N(C)C(=O)[C@H](C)N(C)C(=O)[C@H](CCCN)NC(=O)[C@H](Cc2ccc(-c3ccccc3)cc2)NC(=O)[C@H](C(C)C)NC(=O)[C@H](Cc2c[nH]c3ccccc23)NC(=O)[C@H](CC(=O)O)NC(=O)[C@H](Cc2ccc(O)cc2)NC(=O)[C@H](CC(N)=O)NC(=O)CSC[C@@H](C(=O)N[C@@H](C)C(N)=O)NC(=O)[C@H]([C@@H](C)O)NC(=O)[C@H](C(C)C)NC1=O [Example 1347] ({CH2CO}-NYDWV[Bip][Orn][NMeA][NMeF]RLVTCA-NH2; thioether N-14)
330	CC(C)C[C@@H]1NC(=O)[C@H](CCCNC(=N)N)NC(=O)[C@H](Cc2ccccc2)N(C)C(=O)[C@H](C)N(C)C(=O)[C@H](CCCNC(=N)N)NC(=O)[C@H](Cc2ccc(-c3ccccc3)cc2)NC(=O)[C@H](C(C)C)NC(=O)[C@H](Cc2c[nH]c3ccccc23)NC(=O)[C@H](CC(=O)O)NC(=O)[C@H](Cc2ccncc2)NC(=O)[C@H](CC(N)=O)NC(=O)CSC[C@@H](C(=O)N[C@@H](C)C(N)=O)NC(=O)[C@H]([C@@H](C)O)NC(=O)[C@H](C(C)C)NC1=O [Example 1349] ({CH2CO}-N[4Pal]DWV[Bip]R[NMeA][NMeF]RLVTCA-NH2; thioether N-14)
590	CC(C)C[C@@H]1NC(=O)[C@H](CC(C)C)NC(=O)[C@H](CCCNC(=N)N)NC(=O)[C@H](Cc2ccccc2)N(C)C(=O)[C@H](C)N(C)C(=O)[C@H](CCCNC(=N)N)NC(=O)[C@H](Cc2ccc(-c3ccccc3)cc2)NC(=O)[C@H](C(C)C)NC(=O)[C@H](Cc2c[nH]c3ccccc23)NC(=O)[C@H](CC(=O)O)NC(=O)[C@H](Cc2ccc(O)cc2)NC(=O)[C@H](Cc2ccccc2)NC(=O)CSC[C@@H](C(=O)NCC(N)=O)NC(=O)[C@H](CO)NC1=O [Example 1325] ({CH2CO}-FYDWV[Bip]R[NMeA][NMeF]RLLSCG-NH2; thioether N-14)
370	CC(C)C[C@@H]1NC(=O)[C@H](Cc2c[nH]c3ccccc23)NC(=O)[C@H](Cc2nn[nH]n2)NC(=O)[C@H](Cc2ccc(O)cc2)NC(=O)[C@H](Cc2ccccc2)NC(=O)CSC[C@@H](C(=O)N[C@@H](C)C(N)=O)NC(=O)[C@H](CO)NC(=O)[C@H](C(C)C)NC(=O)[C@H](CC(C)C)NC(=O)[C@H](CC(N)=O)NC(=O)[C@H]2CCCN2C(=O)[C@H](C)N(C)C(=O)[C@H](C(C)C)NC(=O)[C@H](Cc2ccc(-c3ccccc3)cc2)NC1=O [Example 1428] ({CH2CO}-FY[Ala(1H-tetrazol-5-yl)]WL[Bip]V[NMeA][dP]NLVSCA-NH2; thioether N-14)
120	CC(C)C[C@@H]1NC(=O)[C@H](CCN)NC(=O)[C@H](Cc2ccccc2)N(C)C(=O)[C@H](C)N(C)C(=O)[C@H](CCCNC(=N)N)NC(=O)[C@H](Cc2ccc(-c3ccccc3)cc2)NC(=O)[C@H](C(C)C)NC(=O)[C@H](Cc2c[nH]c3ccccc23)NC(=O)[C@H](CC(=O)O)NC(=O)[C@H](Cc2ccc(O)cc2)NC(=O)[C@H](Cc2ccccc2)NC(=O)CSC[C@@H](C(=O)N[C@@H](C)C(N)=O)NC(=O)[C@H]([C@@H](C)O)NC(=O)[C@H](C(C)C)NC1=O [Example 1322] ({CH2CO}-FYDWV[Bip]R[NMeA][NMeF][Dab]LVTCA-NH2; thioether N-14)

The next lines start with the compound.

Compound	IC50 [nM]
CC(C)C[C@@H]1NC(=O)[C@H](Cc2c[nH]c3ccccc23)NC(=O)[C@H](CC(=O)O)NC(=O)[C@H](Cc2ccc(O)cc2)NC(=O)[C@H](Cc2ccccc2)NC(=O)CSC[C@@H](C(=O)N[C@@H](C)C(N)=O)NC(=O)[C@H](CO)NC(=O)[C@H](C(C)C)NC(=O)[C@H](CC(C)C)NC(=O)[C@H](CC(N)=O)NC(=O)[C@H]2CCCN2C(=O)[C@@H](CCN)NC(=O)[C@H](C(C)C)NC(=O)[C@H](Cc2ccc(-c3ccccc3)cc2)NC1=O [Example 1195] ({CH2CO}-FYDWL[Bip]V[dDab][dP]NLVSCA-NH2; thioether N-14)	370
CC(C)C[C@@H]1NC(=O)[C@H](Cc2c[nH]c3ccccc23)NC(=O)[C@H](CC(=O)O)NC(=O)[C@H](Cc2ccc(OCC(=O)O)cc2)NC(=O)[C@H](Cc2ccncc2)NC(=O)CSC[C@@H](C(=O)N[C@@H](CCN)C(N)=O)NC(=O)[C@H](CO)NC(=O)[C@H](C(C)(C)O)NC(=O)[C@H](CC2CCCCC2)NC(=O)[C@H](CCN)NC(=O)[C@H]2CCCN2C(=O)[C@H](C)N(C)C(=O)[C@H](CCCNC(N)=O)NC(=O)[C@H](Cc2ccc(-c3ccccc3)cc2)NC1=O [Example 1181] ({CH2CO}-[4Pal]Y(Carboxymethyl)DWL[Bip][Cit][NMeA][dP][Dab][Cha][Val(3-OH)]SC[Dab]-NH2; thioether N-14)	100
CC(C)C[C@@H]1NC(=O)[C@H](Cc2c[nH]c3ccccc23)NC(=O)[C@H](CC(=O)O)NC(=O)[C@H](Cc2ccc(O)cc2)NC(=O)[C@H](Cc2ccc(C#N)cc2)NC(=O)CSC[C@@H](C(=O)NCC(N)=O)NC(=O)[C@H](CO)NC(=O)[C@H](C(C)C)NC(=O)[C@H](CC(C)C)NC(=O)[C@H](CC(N)=O)NC(=O)CN(C)C(=O)[C@H](C)N(C)C(=O)[C@H](C(C)C)NC(=O)[C@H](Cc2ccc(-c3ccccc3)cc2)NC1=O [Example 1128] ({CH2CO}-[Phe(4-CN)]YDWL[Bip]V[NMeA][Sar]NLVSCG-NH2; thioether N-14)	490
CC(C)C[C@@H]1NC(=O)[C@H](Cc2c[nH]c3ccccc23)NC(=O)[C@H](CC(=O)O)NC(=O)[C@H](Cc2cccnc2)NC(=O)[C@H](Cc2ccccc2)NC(=O)CSC[C@@H](C(=O)N[C@@H](C)C(N)=O)NC(=O)[C@H](CO)NC(=O)[C@H](C(C)C)NC(=O)[C@H](CC(C)C)NC(=O)[C@H](CC(N)=O)NC(=O)CN(C)C(=O)[C@H](C)N(C)C(=O)[C@H](C(C)C)NC(=O)[C@H](Cc2ccc(-c3ccccc3)cc2)NC1=O [Example 1080] ({CH2CO}-F[3Pal]DWL[Bip]V[NMeA][Sar]NLVSCA-NH2; thioether N-14)	230
CCCC[C@@H]1NC(=O)[C@H](C(C)C)NC(=O)[C@H](Cc2ccccc2)N(C)C(=O)[C@H](CC(=O)O)NC(=O)[C@H](CCCNC(=N)N)NC(=O)[C@H](Cc2ccc(-c3ccccc3)cc2)NC(=O)[C@H](C(C)C)NC(=O)[C@H](Cc2c[nH]c3ccccc23)NC(=O)[C@H](CC(=O)O)NC(=O)[C@H](Cc2ccc(O)cc2)NC(=O)[C@H](Cc2ccccc2)NC(=O)CSC[C@@H](C(=O)NCC(N)=O)NC(=O)[C@H](CO)NC(=O)[C@H](C(C)C)NC1=O [Example 1227] ({CH2CO}-FYDWV[Bip]RD[NMeF]V[Nle]VSCG-NH2; thioether N-14)	650
COc1cccc(C[C@@H]2NC(=O)[C@H](Cc3ccccc3)NC(=O)CSC[C@@H](C(=O)N[C@@H](C)C(N)=O)NC(=O)[C@H](CO)NC(=O)[C@H](C(C)C)NC(=O)[C@H](CC(C)C)NC(=O)[C@H](CC(N)=O)NC(=O)[C@H]3CCCN3C(=O)[C@H](C)N(C)C(=O)[C@H](C(C)C)NC(=O)[C@H](Cc3ccc(-c4ccccc4)cc3)NC(=O)[C@H](CC(C)C)NC(=O)[C@H](Cc3c[nH]c4ccccc34)NC(=O)[C@H](CC(=O)O)NC2=O)c1 [Example 1055] ({CH2CO}-F[Phe(3-OMe)]DWL[Bip]V[NMeA][dP]NLVSCA-NH2; thioether N-14)	120
CC(C)C[C@@H]1NC(=O)[C@H](C)NC(=O)[C@H]2CCCN2C(=O)[C@H](C)N(C)C(=O)[C@H](CCC(=O)O)NC(=O)[C@H](Cc2ccc(-c3ccccc3)cc2)NC(=O)[C@H](CC(C)C)NC(=O)[C@H](Cc2c[nH]c3ccccc23)NC(=O)[C@H](CC(=O)O)NC(=O)[C@H](Cc2ccc(C(=O)O)cc2)NC(=O)[C@H](Cc2cccnc2)NC(=O)CSC[C@@H](C(=O)N[C@@H](C)C(N)=O)NC(=O)[C@H](CO)NC(=O)[C@H](C(C)C)NC1=O [Example 1085] ({CH2CO}-[3Pal][Phe(4-COOH)]DWL[Bip]E[NMeA][dP]ALVSCA-NH2; thioether N-14)	240
CC(C)C[C@@H]1NC(=O)[C@H](Cc2c[nH]c3ccccc23)NC(=O)[C@H](CC(=O)O)NC(=O)[C@H](Cc2ccc(O)cc2)NC(=O)[C@H](Cc2ccccc2)NC(=O)CSC[C@@H](C(=O)N[C@@H](C)C(N)=O)NC(=O)[C@H](CO)NC(=O)[C@H](C(C)C)NC(=O)[C@H](CC(C)C)NC(=O)[C@H](CCCNC(=N)N)NC(=O)[C@H]2CCCN2C(=O)[C@H](C)N(C)C(=O)[C@H](CCCNC(=N)N)NC(=O)[C@H](Cc2ccc(-c3ccccc3)cc2)NC1=O [Example 1096] ({CH2CO}-FYDWL[Bip]R[NMeA][dP]RLVSCA-NH2; thioether N-14)	280
CC(C)C[C@@H]1NC(=O)[C@H](CCCNC(=N)N)NC(=O)[C@H](Cc2ccccc2)N(C)C(=O)[C@H](CCCNC(=N)N)NC(=O)[C@H](CCCNC(=N)N)NC(=O)[C@H](Cc2ccc(-c3ccccc3)cc2)NC(=O)[C@H](C(C)C)NC(=O)[C@H](Cc2c[nH]c3ccccc23)NC(=O)[C@H](CC(=O)O)NC(=O)[C@H](Cc2ccc(O)cc2)NC(=O)[C@H](Cc2cnc[nH]2)NC(=O)CSC[C@@H](C(=O)NCC(N)=O)NC(=O)[C@H](CO)NC(=O)[C@H](C(C)C)NC1=O [Example 1315] ({CH2CO}-HYDWV[Bip]RR[NMeF]RLVSCG-NH2; thioether N-14)	530
